Results published in patent US20040019092A1, “Non-peptide somatostatin receptor ligands” (priority 2001, published 2004).
Values joined by “and” are separate entries in the source; they are usually repeats but may differ in a detail not shown here. Equal values may be shown once.

Tests used:
[1] = system: GHRH induced GH secretion in primary cultures of rat pituitary cells; test: In vitro inhibition of GHRH induced GH secretion (GH vitro +GHRH); assay type: cell-based
GH secretion [2] = test: GH secretion in vivo, rat, subcutaneous application, 1 h (basal); settings: rat, basal GH secretion, 1 h after subcutaneous application
Procedure: (§1) Animals, anesthesia: Male rats of a Sprague Dawley strain (Ico:OFA-SD, Iffa-Credo, F-Lyon) of 200-300 g body weight were used. They were kept under standardized conditions and were anesthetized with pentobarbital-sodium (Siegfried, CH Zofingen), 60 mg/kg i.p. for subcutaneous and intraduodenal applications. Animals designed for an infusion experiment were anesthetized with urethane (Siegfried, CH Zofingen), 1.2 g/kg i.p.
(§2) Compounds: The compounds were dissolved, optionally with the aid of one or more of the following adjuncts:
(§3) Stock solutions of the compounds were prepared in water with the addition of the necessary adjunct(s). Further dilutions were prepared allowing 5 mL/kg for subcutaneous application, 2 mL for intraduodenal (i.d.) application or 4.5 mL/kg for intravenous infusion. The solutions for the intravenous application/infusion were made isotonic by addition of glucose to a final concentration of 5%.
(§4) Applications were made, or, in the case of infusion, started, approximately 10 minutes after induction of anesthesia. No further treatment followed subcutaneous or intraduodenal application. Ten, twenty-five and fifty-five minutes after start of the intravenous infusion the GH secretion was stimulated with repeated intravenous injections of the potent GHRH analog, D-Ala2 GHRH1-29NH2, 1 μg/kg.
(§5) One hour after subcutaneous or intraduodenal application of the compounds, blood was collected from the trunk after decapitation. In the case of application by infusion, 5 minutes after each application of GHRH, a blood sample of 0.8 mL was taken from a V. jugularis and mixed with EDTA (Eppendorf tubes TOM14, Milian, CH Geneva). The blood samples were kept on ice and spun in a cooled centrifuge. The serum or plasma was separated and frozen.
(§6) Statistics: In each experiment, 4-5 animals were used per dose, with 6 to 8 animals as the control group that received the vehicle. The GH serum/plasma levels were averaged, the mean of the treated groups expressed in percent of the control group and the ID50-value for the inhibition of the secretion was determined graphically (log-probit) for each experiment. In most experiments with enteral (intraduodenal) application only 1 dose, 10 mg/kg, was given. […] Only inhibitions between 20 and 80% were considered reliable.
(§7) Two to four experiments were performed. In the case of proper dose response curves, allowing the determination of an ID50 values were averaged logarithmically. In the cases of single dose-experiments, the GH value in percent of control were averaged logarithmically and the ID50 for this value was taken from the table. ID50 values determined at the different time points during the infusion were averaged and this value was included in the tables.

GH secretion [3] = test: GH secretion in vivo, rat, intraduodenal (enteral) application, 1 h (basal); settings: for GH vivo i.d. 1 h ID50: basal GH secretion, 1 h after intraduodenal application, mostly approximate ID50 from single 10 mg/kg dose, Ø = no effect at this dose, > = extrapolated value
Procedure: as §1, §2, §3, §4, §5, §6, §7

[4] = system: GHRH stimulated GH secretion; test: GH secretion in vivo, rat, intravenous infusion with repeated GHRH stimulation; settings: for INFUS. + GHRH ID50 MEAN: Table 4, mean of infusion time points; for INFUS. + GHRH ID50 15′ / INFUS. + GHRH ID50 30′ / INFUS. + GHRH ID50 60′: Table 4, urethan; for GH vivo Inf + GHRH ID50 (mean of time points): urethane, i.v. infusion, GHRH stimulated
Procedure: as §1, §3, §4, §5, §6, §7

[5] = system: GHRH stimulated GH secretion; test: GH secretion, rat in urethan anesthesia, subcutaneous + repeated GHRH stimulation; assay type: in vivo
Procedure: as §4
(§8) With most of these selected compounds additional in vivo experiments in other models (intraduodenal application followed by repeated stimulation of the GH secretion by GHRH, oral application by gavage of unanesthetized, estradiol primed rats) were performed. Table 4 summarizes data obtained for the inhibition of the stimulated GH secretion after subcutaneous, intraduodenal and intravenous application and the inhibitory effects obtained for different time points during intravenous infusion of selected hydantoins.

[6] = system: GHRH stimulated GH secretion; test: GH secretion, rat in urethan anesthesia, intraduodenal + repeated GHRH stimulation; assay type: in vivo; settings: urethan
Source text: as §8, with “No further treatment followed subcutaneous or intraduodenal application. […] This value has been determined in a total of four independent experiments. […] However, in further studies compound 47 has also been tested by the enteral route of administration after repeated stimulation of the GH secretion by GHRH. […] With” for “With”, “hydantoins. […] [table]” for “hydantoins.”

GH secretion [7] = test: Unanesthetized estradiol primed male rats, oral by gavage: GH; assay type: in vivo, rat; settings: estradiol implant male rats, oral by gavage, 1 hour
Procedure: The inhibitory effect of the compounds on GH release may also be examined after oral application to male rats with oestradiol implants. This test is carried out as follows.
A loop (length 50 mmØ3 mm) of silastic with 50 mg of oestradiol is implanted under the dorsal skin of anaesthetized male OFA rats that have a weight of ca. 300 g. At various times (1 to 6 months later), these animals, in a fasted state, are used repeatedly for tests. The test substances are active in this test at doses from 0.1 to 5 mg/kg, when GH level in the blood serum is determined by radio-immunoassay 1 and 2 hours after oral administration.
(§9) Table 5 summarizes the results obtained in the estradiol primed male rats that received the compounds orally by gavage. These rats have stabilized elevated GH plasma levels as well as increased prolactin levels. In contrast to normal untreated rats, who's prolactin secretion is not sensitive to the inhibitory effect of somatostain, in these rats the prolactin secretion is inhibited to a similar degree as the GH secretion. Therefore, the inhibitory effect can be measured on 2 different parameters, GH and prolactin. The mean enteral absorption and activity of the respective compounds are shown.

prolactin secretion = test: Unanesthetized estradiol primed male rats, oral by gavage: prolactin; assay type: in vivo, rat; settings: estradiol implant male rats, oral by gavage, 1 hour; ø = no effect at this dose
Source text: as §9

SS1 = SS1 (Rattus norvegicus, UniProt P30680); test: SS-1 binding (Bind SS1 D.H.)
Sequence of SS1 (P30680 whole entry): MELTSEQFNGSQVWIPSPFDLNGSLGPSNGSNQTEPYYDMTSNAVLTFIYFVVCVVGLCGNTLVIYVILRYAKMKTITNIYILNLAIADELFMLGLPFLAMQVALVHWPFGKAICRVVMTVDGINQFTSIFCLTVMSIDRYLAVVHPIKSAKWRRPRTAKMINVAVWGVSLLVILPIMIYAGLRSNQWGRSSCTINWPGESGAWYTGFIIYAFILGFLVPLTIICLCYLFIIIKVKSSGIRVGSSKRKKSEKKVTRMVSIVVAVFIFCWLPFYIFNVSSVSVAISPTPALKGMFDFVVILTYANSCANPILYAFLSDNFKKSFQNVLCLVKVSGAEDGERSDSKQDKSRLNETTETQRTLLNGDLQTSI

[8] = biological target: T1, human sst2 receptor sub-type (Homo sapiens, UniProt P30874); test: In vitro binding, human sst2 receptor sub-type (SSTR2); settings: Tables 8/9: Bind SSTR2 nM
T1 construct: host or cells: SRIF receptor expressing cell cultures (general statement only)
T1 sequence (P30874 whole entry): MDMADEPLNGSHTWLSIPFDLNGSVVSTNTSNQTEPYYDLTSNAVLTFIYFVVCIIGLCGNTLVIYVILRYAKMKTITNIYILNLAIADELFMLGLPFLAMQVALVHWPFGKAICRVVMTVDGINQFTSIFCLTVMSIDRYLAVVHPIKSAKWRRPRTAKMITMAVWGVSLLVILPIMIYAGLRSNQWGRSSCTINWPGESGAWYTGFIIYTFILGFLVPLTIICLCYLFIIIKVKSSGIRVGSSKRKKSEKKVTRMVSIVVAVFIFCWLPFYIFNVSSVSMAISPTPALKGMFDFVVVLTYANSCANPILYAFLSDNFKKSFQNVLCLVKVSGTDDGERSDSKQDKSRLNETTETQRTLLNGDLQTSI
Procedure: The in vitro binding affinities for rat cortex SRIF receptors and the human sst2 receptor sub-type was assessed. Further the in vitro inhibition of the GHRH induced GH secretion in primary cultures of rat pituitary cells as well as the in vivo inhibition of GH secretion in the rat after systemic or enteral application was studied. […] Therefore, the in vivo activities of the compounds in rats with respect to inhibition of growth hormone release was also assessed. Most compounds selected were tested by enteral—intraduodenal (i.d.) application. For determination of the absolute activity and for the calculation of an enteral bioavailability, single subcutaneous (s.c.) application of intravenous (i.v.) infusion was used.

| IC50 [8] | SMILES | GH vivo s.c. 1 h ID50 (GH secretion [2]) | GH vivo i.d. 1 h ID50 (GH secretion [3]) | INFUS. + GHRH ID50 MEAN [4] | INFUS. + GHRH ID50 15′ ([4]; 15′ of infusion) | INFUS. + GHRH ID50 30′ ([4]; 30′ of infusion) | INFUS. + GHRH ID50 60′ ([4]; 60′ of infusion) | GH 1 H ID50 (GH secretion [7]) | MEAN ID50 (GH and prolactin) (GH secretion [7]) | PROLACT 1 H ID50 (prolactin secretion) | GH vivo Inf + GHRH ID50 (mean of time points) [4] | also measured |
| --- | --- | --- | --- | --- | --- | --- | --- | --- | --- | --- | --- | --- |
| – | C[C@@H](O)[C@@H]1NC(=O)[C@H](CCCCN)NC(=O)[C@@H](Cc2c[nH]c3ccccc23)NC(=O)[C@H](Cc2ccccc2)NC(=O)[C@@H](NC(=O)[C@H](N)Cc2ccccc2)CSSC[C@@H](C(=O)N[C@H](CO)[C@@H](C)O)NC1=O [Octreotride, Octreotide, reference compound] | 0.13 µg/kg | 125 µg/kg | 0.12 µg/kg | 0.16 µg/kg | 0.11 µg/kg | 0.10 µg/kg | 440 µg/kg | 663 µg/kg | 998 µg/kg | – | IC50 [1]: 1.3 nM; GH, Ur Inf15′ +GHRH ([4]; Tables 8/9, urethane, 15′ of infusion): 0.124 µg/kg/h; GH, UR Inf30′ +GHRH ([4]; Tables 8/9, urethane, 30′ of infusion): 0.082 µg/kg/h; GH, UR Inf60′ +GHRH ([4]; Tables 8/9, urethane, 60′ of infusion): 0.085 µg/kg/h; GH vivo Inf + GHRH ID50 (mean of time points) ([4]; listed as Octreotride ac): 0.12 µg/kg/h and 0.096 µg/kg/h; GH vivo Inf + GHRH ID50 (mean of time points) ([4]; listed as octreotride ac): 0.096 µg/kg/h; SUBCUTANEOUS + GHRH ID50 15′ ([5]; 15′): 0.15 µg/kg; SUBCUTANEOUS + GHRH ID50 30′ ([5]; 30′): 0.15 µg/kg; SUBCUTANEOUS + GHRH ID50 60′ ([5]; 60′): 0.26 µg/kg; INTRADUODENAL + GHRH ID50 15′ ([6]; 15′, ø = no effect at this dose): 24.2 µg/kg; INTRADUODENAL + GHRH ID50 30′ ([6]; 30′): 16.6 µg/kg; INTRADUODENAL + GHRH ID50 60′ ([6]; 60′): 26.8 µg/kg; INTRADUODENAL + GHRH ID50 120′ ([6]; 120′, ø = no effect at this dose): 82.0 µg/kg; Bind SS1 D.H. (SS1): 0.30 nM |
| 0.18 nM | Cc1cccc2c(CC3C(=O)N(CCCCCN)C(=O)N3S(=O)(=O)c3ccc(Oc4ccc(O)c(Cl)c4)c(C(=O)N(C)C)c3)c[nH]c12 (single isomer, unassigned; (+)) [(+)-43] | 3.0 µg/kg | 4800 µg/kg | 1.68 µg/kg | 2.28 µg/kg | 1.54 µg/kg | 1.35 µg/kg | – | – | – | 1.68 µg/kg/h | GH vivo s.c. 1 h ID50 (GH secretion [2]; listed as (+)−43): 3.00 µg/kg; GH vivo s.c. 1 h ID50 (GH secretion [2]; listed as (+)−43 ch): 3.00 µg/kg |
| 2.5 nM | CN(C)C(=O)c1cc(S(=O)(=O)N2C(=O)N(CCCCCN)C(=O)C2Cc2c[nH]c3ccccc23)ccc1Oc1ccc(OC(=O)C(N)CCCCN)c(Cl)c1 (stereo not shown) [Compound 48] | – | > 15000 µg/kg | – | – | – | – | 11000 µg/kg | 9950 µg/kg | 9000 µg/kg | 32.00 µg/kg/h | GH inhibition by the enteral route (GH secretion [3]; 10 mg/kg enteral): exhibited inhibition |
